For one assay, the system named is A172 glioblastoma cells. Kind of assay: Sulforhodamine B (SRB) cytotoxicity assay. The note with it: 72 h. Here is the method: Normalized % viabilities are plotted against log concentration. Error bars show the percent coefficient of variation. […] Mann-Whitney test was used to generate the p-value. The DNA spread assay is the representation of two independently repeated experiments. Source Data are provided as a Source Data file.
Cells were plated in 96-well plates, treated as designated in reduced 5% FBS and fixed with trichloroacetic acid after 72 h, as previously described by[43]. […] Colorimetric or fluorescence analysis was performed in a FlexStation 3, using SoftMax Pro 7.0, Molecular Devices. Normalized graphs were generated with Prism 8 software, non-linear 4-parameter data fitting was performed for IC50 calculation.

Another assay addresses T1, Human PARG (Homo sapiens, UniProt Q86W56).
T1 construct: The human PARG (hPARG) catalytic domain (residues 389–976) was cloned in pET28a (Novagen); His-tag (N); made in house; host or cells: E. coli Rosetta
Kind of assay: Gel-based PARG activity assay. Type of assay: biochemical. The note with it: for inhibition at 0.0488281 µM: [L] 0.0488281 uM; for inhibition at 0.0976562 µM: [L] 0.0976562 uM; for inhibition at 0.195312 µM: [L] 0.195312 uM; for inhibition at 0.390625 µM: [L] 0.390625 uM; for inhibition at 0.78125 µM: [L] 0.78125 uM; for inhibition at 1.5625 µM: [L] 1.5625 uM; for inhibition at 3.125 µM: [L] 3.125 uM; for inhibition at 6.25 µM: [L] 6.25 uM; for inhibition at 12.5 µM: [L] 12.5 uM; for inhibition at 25 µM: [L] 25 uM; for inhibition at 50 µM: [L] 50 uM; for IC50: hPARG 1 nM, PARylated PARP1C 500 nM, 30 min. Here is the method:
PARP1C (2 μM) is enzymatically auto-modified in a reaction containing the PARP1 DBD (2 μM), a 24 mer nicked DNA oligo (2 μM), and NAD^+ (300 μM) for 1 h at 37 °C, as described previously. Human PARG^389–976 (1 nM) was pre-incubated with compounds for 1 h at room temperature. The reaction was initiated by the addition of PARylated PARP1 (final concentration of 500 nM) and quenched after 30 min incubation at room temperature by adding SDS-PAGE sample buffer. The gel was visualized by sypro-ruby staining[18] and the retained PARylated PARP1C species were quantified using ImageJ[59]. PARylated PARP1C that migrates slower than unmodified PARP1C was quantified. […] The IC50 values were determined by fitting the dose-response data for each compound to a four-parameter logistic equation using SigmaPlot (Systat Software Inc.).
To test the specificity of JA2131, human PARG^389–976 (1 nM) was pre-incubated with JA2131 (5, 10, and 20 μM) in the presence and absence of 0.1% Triton-X 100 or 0.1 mg/ml BSA for 1 h at room temperature. The reaction was initiated, quenched, visualized, and quantified as described above. […]
PARG activity assay. […]
PARP1 (500 nM). The reaction was quenched after a 30 -minu te in cu ba tion a t roo m te mpe ra tu re by adding SDS-PA GE sa mp le bu f fe r. PARylated PARP1C runs as a smear on SDS -PAGE that is reduced to a single band by PARG treatment. […]
2). (b) Qu an t if ica t ion o f the dose-response PARG inhibition by JA2 -3 using the gel-based PARG activity assay. hPARG (1 nM) was preincubated with increasing concentrations (0.032 – 1 µM) of JA2-3 f o r 1 hour at room temperature before PARylated PARP1C (500 nM) was added. The reaction was quenched after a 30-minu te incubation at room temperature. PARylated PARP1C migrates slower than unmodified PARP1C and was quantified using ImageJ. […] The rate of the PARG-dependent signal loss in the TR-FRET PAR turnover assay is not equivalent to the steady-state rate of PAR turnover, because the TR-FRET assay can’t detect signal loss until the length of PAR chains become shorter than 7 ADP-ribose units. Therefore, we used the gel-based PARG activity assay to accurately determine the IC50 values throughout the manuscript .

Another assay deals with T2, rat PARG (Rattus norvegicus, UniProt Q9QYM2).
T2 construct: The catalytic domain of rat PARG (residues 385–972) was purified as described previously; made in house
T2 sequence (Q9QYM2 385-972): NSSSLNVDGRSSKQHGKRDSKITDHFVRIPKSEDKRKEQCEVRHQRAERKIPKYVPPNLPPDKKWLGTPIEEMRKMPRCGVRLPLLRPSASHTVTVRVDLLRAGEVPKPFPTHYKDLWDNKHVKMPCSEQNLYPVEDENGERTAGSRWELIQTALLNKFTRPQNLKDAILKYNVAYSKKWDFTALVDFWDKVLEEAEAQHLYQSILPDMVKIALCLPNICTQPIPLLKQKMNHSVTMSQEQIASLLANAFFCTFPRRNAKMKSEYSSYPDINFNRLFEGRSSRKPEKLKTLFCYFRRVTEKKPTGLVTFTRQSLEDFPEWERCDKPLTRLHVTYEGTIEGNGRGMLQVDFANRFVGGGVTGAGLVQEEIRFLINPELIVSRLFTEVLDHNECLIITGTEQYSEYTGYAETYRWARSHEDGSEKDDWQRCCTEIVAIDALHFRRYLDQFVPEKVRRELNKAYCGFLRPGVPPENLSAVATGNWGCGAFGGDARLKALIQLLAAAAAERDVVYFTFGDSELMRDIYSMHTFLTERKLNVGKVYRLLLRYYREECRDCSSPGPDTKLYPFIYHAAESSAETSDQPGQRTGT
Kind of assay: TR-FRET PAR turnover assay (HTS and dose-response). Type of assay: biochemical. The note with it: for IC50: dose-response, rat PARG 12.5 nM, read-out: Estimated IC50; for TR-FRET: 6.7 μM compound. From the text: Importantly, PARG enzymatic function can be required for tumorigenesis. Therefore, we sought to identify a selective PARG inhibitor through our robust PARG enzyme kinetic assay, which quantitatively monitors real-time PAR-mediated PARP1-XRCC1 interactions and disassembly in a multi-well format. A strong TR-FRET signal was generated upon assembly of the Tb^3+-chelated XRCC1 (FRET donor) with PARylated PARP1, which incorporates fluorescein-labeled ADP-ribose moieties into PAR chains (FRET acceptor). The addition of PARG caused a time-dependent loss of the TR-FRET signal by reversing PARylation and disassembling the PARP1-XRCC1 complex (Supplementary Fig. 1)[37].
For a high-throughput screening (HTS) of PARG inhibitors, we developed a high-throughput PARG activity assay using the TR-FRET system (a manuscript describing the details of this assay will be published elsewhere). Briefly, the fluorescein molecule (FITC) was enzymatically incorporated into PARP1 in a reaction containing PARP1C (2 μM), the PARP1 DBD (2 μM), a 24 mer nicked DNA oligo (2 μM), and a mixture of unlabeled NAD^+ (Sigma) and FITC-NAD^+ (Trevigen) substrates (total NAD^+ concentration of 100 μM). After incubation for 1 h at 37 °C, PARylated PARP1 was desalted using a PD-10 desalting column (GE healthcare) in a buffer containing 25 mM Tris-HCl (pH 7.5), 50 mM NaCl, and 0.01% NP-40 and used as the FRET acceptor. The biotin-tagged BRCT1 domain of XRCC1 (BRCT1, 5 nM) was conjugated with an equimolar concentration of Tb^3+-chelated streptavidin (Life Technologies) in TR-FRET assay buffer (FRET donor). […] The reaction was started by the addition of the FRET pair of FITC-labeled PARP1 (42 nM) and Tb^3+-BRCT1 (5 nM). The TR-FRET signal was subsequently monitored for 60 min.
Small molecule inhibitors of PARG were identified by high-throughput screening (HTS) using the TR-FRET PAR turnover assay. Compounds (final concentration of 6.7 μM) from the NCI Diversity Set II library (1990 compounds) were pre dispensed into black polystyrene 384-well plates (Corning) using a Hummingbird liquid handler (Digilab). Then, 10 μl of rat PARG^385–972 (12.5 nM and 25 nM) were subsequently dispensed into plates, using a multi-drop combi nL reagent dispenser (Thermo Scientific) and incubated with compounds for 1 h at 4 °C. The reaction was initiated by the addition of 20 μl of the premixed FRET pair of FITC-labeled PARP1 (42 nM) and Tb^3+-BRCT1 (5 nM), and the TR-FRET signal was monitored every 4 min for 40 min (11 data points). Hits were selected by visually comparing the rate of the TR-FRET signal decrease in each well to that of negative control reactions containing DMSO (Fig. 1b and see Text for details). The HTS was performed at the High-Throughput Screening Core (HTSC) at Washington University School of Medicine.

T1 sequence (Q86W56 389-976): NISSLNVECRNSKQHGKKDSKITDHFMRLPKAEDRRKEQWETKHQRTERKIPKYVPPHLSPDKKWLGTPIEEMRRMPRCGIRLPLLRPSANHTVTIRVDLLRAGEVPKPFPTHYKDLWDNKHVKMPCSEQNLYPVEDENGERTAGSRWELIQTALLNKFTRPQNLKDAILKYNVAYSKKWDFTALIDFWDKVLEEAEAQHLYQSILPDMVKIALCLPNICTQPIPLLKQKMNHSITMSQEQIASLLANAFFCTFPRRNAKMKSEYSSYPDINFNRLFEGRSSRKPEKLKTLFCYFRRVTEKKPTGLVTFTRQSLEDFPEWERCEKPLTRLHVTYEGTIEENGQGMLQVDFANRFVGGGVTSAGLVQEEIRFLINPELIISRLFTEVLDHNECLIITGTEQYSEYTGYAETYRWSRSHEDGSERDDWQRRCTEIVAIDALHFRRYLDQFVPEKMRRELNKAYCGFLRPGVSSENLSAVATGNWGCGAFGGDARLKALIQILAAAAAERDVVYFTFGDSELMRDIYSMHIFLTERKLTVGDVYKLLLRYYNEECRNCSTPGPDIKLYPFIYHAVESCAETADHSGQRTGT

In the assay on A172 glioblastoma cells, `NC(=O)NO` [Hydroxyurea] yielded a concentration for half-maximal inhibition (IC50) of 381 ± 117 µM.
For the molecule `Cn1c(=O)c2[nH]c(SCCN3CCOCC3)nc2n(C)c1=S` [JA2-5], on Human PARG, the inhibition at 0.0488281 µM worked out at 6.3%, the inhibition at 0.0976562 µM was found to be 19.6%, the inhibition at 0.195312 µM is 28.3% and the inhibition at 0.390625 µM turned out to be 27.3%. Further, at Human PARG, the inhibition at 0.78125 µM stood at 35.2%, the inhibition at 1.5625 µM came to 71%, the inhibition at 3.125 µM worked out at 81.9% and the inhibition at 6.25 µM was 87.9%. For the same molecule, at Human PARG, the inhibition at 12.5 µM amounted to 89.1%, the inhibition at 25 µM came to 99.8%, the inhibition at 50 µM came out at 104% and half-maximal inhibition (IC50) required 1000 nM.
In the case of `CCCOCN1C(=O)C=CC1=O` [JA1-1], the IC50 on rat PARG is 1000 to 2000 nM.
Turning to `Cn1c(=O)c2[nH]c(SCCN3CCOCC3)nc2n(C)c1=O` [JA2120], at Human PARG, the “potency difference JA2131 (6´-thiocarbonyl) vs JA2120 (6´-carbonyl)” value is “more than 50 fold”, the inhibition at 0.0488281 µM is 6.05%, the inhibition at 0.0976562 µM came to 5.87% and the inhibition at 0.195312 µM turned out to be 7.21%. Moreover, at Human PARG, the inhibition at 0.390625 µM was 10.4%, the inhibition at 0.78125 µM came out at 16.2%, the inhibition at 1.5625 µM amounted to 24.6% and the inhibition at 3.125 µM came to 25.7%. On Human PARG, the inhibition at 6.25 µM stood at 24.7%, the inhibition at 12.5 µM was determined as 33.9%, the inhibition at 25 µM was determined as 45.5% and the inhibition at 50 µM is 67%. The molecule further yielded an IC50 against Human PARG of 25700 nM. The inhibition at 100 µM against Human PARG ([L] 100 uM) is 88.3%.
Consider `O=c1[nH]c2[nH]c(=S)[nH]c(=S)c2[nH]1` [JA2-3], for which the inhibition at 0.0001 µM against Human PARG (0.5 h, [L] 1.00E-04 uM) amounted to 0%. The inhibition at 0.03125 µM at Human PARG ([L] 0.03125 uM) was found to be 17%. The inhibition at 0.0625 µM against Human PARG ([L] 0.0625 uM) came to 35.9%. Moreover, the inhibition at 0.125 µM on Human PARG ([L] 0.125 uM) is 56.7%. In addition, the inhibition at 0.25 µM at Human PARG ([L] 0.25 uM) amounted to 74.4%. Further, the inhibition at 0.5 µM at Human PARG ([L] 0.5 uM) was 88%. Also, the inhibition at 1 µM on Human PARG ([L] 1 uM) is 103%. This molecule registered an IC50 against Human PARG of 100 nM. The TR-FRET at rat PARG (12.5 nM PARG, 0 min) was 1.1077; on rat PARG (12.5 nM PARG, 4 min) it was 1.1706; on rat PARG (12.5 nM PARG, 8 min), 1.1753; on rat PARG (12.5 nM PARG, 12 min), 1.0984; on rat PARG (12.5 nM PARG, 16 min), 1.1414; on rat PARG (12.5 nM PARG, 20 min), 1.0328. Further, the TR-FRET stood at 0.9368 on rat PARG (12.5 nM PARG, 24 min); 0.9375 on rat PARG (12.5 nM PARG, 28 min); 0.9636 at rat PARG (12.5 nM PARG, 32 min); 0.9240 on rat PARG (12.5 nM PARG, 36 min); 0.9660 on rat PARG (12.5 nM PARG, 40 min); 1.1716 on rat PARG (25 nM PARG, 0 min). Moreover, the TR-FRET came to 1.2418 on rat PARG (25 nM PARG, 4 min); 1.1876 at rat PARG (25 nM PARG, 8 min); 1.1061 at rat PARG (25 nM PARG, 12 min); 1.0537 at rat PARG (25 nM PARG, 16 min); 1.0170 on rat PARG (25 nM PARG, 20 min); 0.9403 on rat PARG (25 nM PARG, 24 min). Besides, the TR-FRET came to 0.9903 at rat PARG (25 nM PARG, 28 min); 1.0366 at rat PARG (25 nM PARG, 32 min); 0.9358 on rat PARG (25 nM PARG, 36 min); 1.0455 at rat PARG (25 nM PARG, 40 min).
For the molecule `O=C1C=CC(=Nc2cccc3c(N=C4C=CC(=O)O4)cccc23)O1` [JA1-3], the IC50 on rat PARG was roughly 400 nM.
On to `Cn1c(=S)c2nc(SCCN3CCCC3)[nH]c2n(C)c1=O` [JA2-4], for which, at Human PARG, the inhibition at 0.0488281 µM is 2.01%, the inhibition at 0.0976562 µM amounted to 4.3%, the inhibition at 0.195312 µM was found to be 25.2% and the inhibition at 0.390625 µM came out at 34.9%. In addition, at Human PARG, the inhibition at 0.78125 µM was found to be 48.4%, the inhibition at 1.5625 µM was 67%, the inhibition at 3.125 µM is 70.1% and the inhibition at 6.25 µM was determined as 78.4%. Besides, on Human PARG, the inhibition at 12.5 µM came to 87.5%, the inhibition at 25 µM came out at 93.6%, the inhibition at 50 µM turned out to be 100% and the IC50 came to 900 nM.

These data come from PMC6906431, “Selective small molecule PARG inhibitor causes replication fork stalling and cancer cell death” (Nature Communications, 2019).
